Here are results for twelve molecules from paper PMC2075610 (Biochimica et Biophysica Acta. Molecular Basis of Disease, 2006).

Residues, ends and D or L forms follow the SMILES beside them. *: point of attachment. For = O=C* Some results are limits rather than exact numbers.

Test [1] deals with T1, R190/N192 FPR (Homo sapiens, UniProt P21462). The test is described as follows: biochemical. The format is biochemical.
The target of test [2] is T1, R190/N192 FPR. The test is described as follows: biochemical. The format is binding.
The target in test [3] is T2, R190/K192 FPR (Homo sapiens, UniProt P21462, N192K). The test is described as follows: biochemical. Format: biochemical.
Test [4] addresses T2, R190/K192 FPR. The test is described as follows: biochemical. Format: binding.
In test [5] the target is T3, W190/N192 FPR (Homo sapiens, UniProt P21462, R190W). The test is described as follows: biochemical. The format is biochemical.
T3 sequence (P21462 whole entry R190W, looked up): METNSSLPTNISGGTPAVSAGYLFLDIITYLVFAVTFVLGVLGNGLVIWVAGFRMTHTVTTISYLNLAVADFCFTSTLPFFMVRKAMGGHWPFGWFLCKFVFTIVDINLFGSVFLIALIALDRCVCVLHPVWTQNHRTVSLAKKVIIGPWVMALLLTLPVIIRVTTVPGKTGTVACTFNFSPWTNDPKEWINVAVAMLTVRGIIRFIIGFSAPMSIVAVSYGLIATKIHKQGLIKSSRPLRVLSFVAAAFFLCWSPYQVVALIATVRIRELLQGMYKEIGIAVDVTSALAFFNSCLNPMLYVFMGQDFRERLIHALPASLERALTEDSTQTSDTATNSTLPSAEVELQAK
Test [6] deals with T3, W190/N192 FPR. The test is described as follows: biochemical. Format: binding. Conditions: for Ki: Ki (nM ± SEM) for binding of peptides to W190/N192 FPR.
The target in another test is reverse 229E peptide. The test is described as follows: flow.
The target in a further test is MMWLL. The test is described as follows: flow.

T1 sequence (P21462 whole entry, looked up): as the sequence (P21462 whole entry R190W, looked up) above, with W190R counted along it

By Ki is commonly meant the dissociation constant of the complex between target and ligand, obtained from inhibition or displacement. Low values mean higher affinity, high ones lower affinity. Turning to `CSCC[C@H](NC=O)C(=O)N[C@@H](Cc1ccc(O)cc1)C(=O)N[C@H](C(=O)N[C@@H](CCCCN)C(=O)N[C@@H](Cc1c[nH]c2ccccc12)C(=O)N1CCC[C@H]1C(=O)N[C@@H](Cc1c[nH]c2ccccc12)C(=O)N[C@@H](Cc1ccc(O)cc1)C(=O)N[C@H](C(=O)N[C@@H](Cc1c[nH]c2ccccc12)C(=O)N[C@@H](CC(C)C)C(=O)O)C(C)C)C(C)C` (For-MYVKWPWYVWL-OH), the “stimulation of GTPγS binding” value at R190/N192 FPR [1], on R190/K192 FPR [3] and on W190/N192 FPR [5] was “stimulated GTPγS binding” throughout. In addition, the Ki at R190/N192 FPR [2] came out at 134 ± 9 nM; on R190/K192 FPR [4], 134 ± 12 nM; on W190/N192 FPR [6], 133 ± 8 nM.

With `CC(C)C[C@H](NC(=O)[C@@H](N)CCCCN)C(=O)N[C@@H](CC(N)=O)C(=O)N[C@@H](CO)C(=O)N[C@@H](Cc1c[nH]c2ccccc12)C(=O)N[C@@H](CC(=O)O)C(=O)N[C@H](C(=O)N[C@@H](Cc1ccccc1)C(=O)NCC(=O)N[C@@H](CC(N)=O)C(=O)N[C@@H](Cc1c[nH]c2ccccc12)C(=O)N[C@@H](Cc1ccccc1)C(=O)O)C(C)C`, the Ki was 15000 nM at R190/N192 FPR [2], 9500 nM on R190/K192 FPR [4] and 4700 ± 290 nM at W190/N192 FPR [6].

On to `CC(C)C[C@H](NC(=O)[C@H](Cc1c[nH]c2ccccc12)NC(=O)[C@@H](NC(=O)[C@H](Cc1c[nH]c2ccccc12)NC(=O)[C@H](Cc1c[nH]c2ccccc12)NC(=O)[C@@H]1CCCN1C(=O)[C@@H](N)Cc1c[nH]c2ccccc12)C(C)C)C(=O)O` [WPWWVWL] (H-WPWWVWL-OH), for which the Ki on R190/N192 FPR [2], at R190/K192 FPR [4] and at W190/N192 FPR [6] was approximately 600 nM each time.

As to `CC[C@H](C)[C@H](NC(=O)[C@H](CC(N)=O)NC(=O)[C@H](CC(=O)O)NC(=O)[C@@H](NC(=O)[C@H](CC(C)C)NC(=O)[C@@H](NC(=O)[C@H](CCC(N)=O)NC(=O)[C@H](CC(C)C)NC(=O)[C@H](CCCCN)NC(=O)[C@H](CCC(N)=O)NC(=O)[C@@H](N)C(C)C)[C@@H](C)O)[C@@H](C)CC)C(=O)N[C@@H](CC(N)=O)C(=O)N[C@@H](CO)C(=O)N[C@H](C(=O)N[C@@H](CC(C)C)C(=O)N[C@H](C(=O)N[C@@H](CC(=O)O)C(=O)N[C@@H](CC(C)C)C(=O)N[C@@H](CCCCN)C(=O)N[C@@H](Cc1c[nH]c2ccccc12)C(=O)N[C@@H](CC(C)C)C(=O)N[C@@H](CC(N)=O)C(=O)N[C@@H](CCCNC(=N)N)C(=O)N[C@H](C(=O)N[C@@H](CCC(=O)O)C(=O)N[C@H](C(=O)N[C@@H](Cc1ccc(O)cc1)C(=O)N[C@H](C(=O)N[C@@H](CCCCN)C(=O)N[C@@H](Cc1c[nH]c2ccccc12)C(=O)N1CCC[C@H]1C(=O)N[C@@H](Cc1c[nH]c2ccccc12)C(=O)N[C@@H](Cc1c[nH]c2ccccc12)C(=O)N[C@H](C(=O)N[C@@H](Cc1c[nH]c2ccccc12)C(=O)N[C@@H](CC(C)C)C(=O)O)C(C)C)[C@@H](C)CC)[C@@H](C)O)C(C)C)C(C)C)[C@@H](C)O` [Coronavirus 229E 36 mer], the Ki on R190/N192 FPR [2] stood at 10000 nM; on R190/K192 FPR [4], 6800 nM; on W190/N192 FPR [6], 1300 ± 60 nM.

For the molecule `CSCC[C@H](NC(=O)[C@@H](N)CCSC)C(=O)N[C@@H](Cc1c[nH]c2ccccc12)C(=O)N[C@@H](CC(C)C)C(=O)N[C@@H](CC(C)C)C(=O)O` [MMWLL, reference compound] (H-MMWLL-OH), the results for the inhibition constant (Ki) at R190/N192 FPR [2], on R190/K192 FPR [4] and on W190/N192 FPR [6] were 330 ± 50 nM, 190 ± 30 nM and 840 ± 200 nM, respectively. Moreover, the “fold higher affinity for R190/K192 than for W190/N192” value at R190/K192 FPR [4] was approximately 3 fold.

In the case of `CC[C@H](C)[C@H](NC(=O)[C@H](CC(N)=O)NC(=O)[C@H](C)NC(=O)[C@H](CCC(=O)O)NC(=O)[C@H](CC(C)C)NC(=O)[C@@H](N)Cc1ccc(O)cc1)C(=O)N[C@@H](CO)C(=O)N[C@@H](CCC(=O)O)C(=O)N[C@@H](CC(C)C)C(=O)N[C@@H](CC(C)C)C(=O)N[C@@H](CCC(=O)O)C(=O)N[C@@H](CCC(N)=O)C(=O)N[C@@H](C)C(=O)N[C@@H](CCC(N)=O)C(=O)N[C@H](C(=O)N[C@@H](CCC(N)=O)C(=O)N[C@@H](CCC(N)=O)C(=O)N[C@@H](CCC(=O)O)C(=O)N[C@@H](CCCCN)C(=O)N[C@@H](CC(N)=O)C(=O)N[C@@H](CCSC)C(=O)N[C@@H](Cc1ccc(O)cc1)C(=O)N[C@@H](CCC(=O)O)C(=O)N[C@@H](CC(C)C)C(=O)N[C@@H](CCC(N)=O)C(=O)N[C@@H](CCCCN)C(=O)N[C@@H](CC(C)C)C(=O)N[C@@H](CC(N)=O)C(=O)N[C@@H](CO)C(=O)N[C@@H](Cc1c[nH]c2ccccc12)C(=O)N[C@@H](CC(=O)O)C(=O)N[C@H](C(=O)N[C@@H](Cc1ccccc1)C(=O)NCC(=O)N[C@@H](CC(N)=O)C(=O)N[C@@H](Cc1c[nH]c2ccccc12)C(=O)N[C@@H](Cc1ccccc1)C(=O)O)C(C)C)[C@@H](C)CC` [HIV-2 37 mer], the Ki on R190/N192 FPR [2] came to 15700 nM; on R190/K192 FPR [4] it was 10000 nM; at W190/N192 FPR [6], 4000 ± 1000 nM.

For the molecule `CC[C@H](C)[C@H](NC(=O)[C@H](C)NC(=O)[C@H](CCC(=O)O)NC(=O)[C@H](CCC(N)=O)NC(=O)[C@H](CC(C)C)NC(=O)[C@H](CCCNC(=N)N)NC(=O)[C@H](CC(N)=O)NC(=O)[C@@H](N)CCSC)C(=O)N[C@@H](CCCCN)C(=O)N[C@H](C(=O)N[C@@H](CC(C)C)C(=O)N[C@@H](CC(N)=O)C(=O)N[C@@H](CCC(N)=O)C(=O)N[C@@H](CO)C(=O)N[C@@H](Cc1ccc(O)cc1)C(=O)N[C@H](C(=O)N[C@@H](CC(N)=O)C(=O)N[C@@H](CC(C)C)C(=O)N[C@@H](CCCCN)C(=O)N[C@@H](CC(=O)O)C(=O)N[C@H](C(=O)NCC(=O)N[C@H](C(=O)N[C@@H](Cc1ccc(O)cc1)C(=O)N[C@@H](CCC(=O)O)C(=O)N[C@@H](Cc1ccc(O)cc1)C(=O)N[C@@H](Cc1ccc(O)cc1)C(=O)N[C@H](C(=O)N[C@@H](CCCCN)C(=O)N[C@@H](Cc1c[nH]c2ccccc12)C(=O)N1CCC[C@H]1C(=O)N[C@@H](Cc1c[nH]c2ccccc12)C(=O)N[C@@H](Cc1ccc(O)cc1)C(=O)N[C@H](C(=O)N[C@@H](Cc1c[nH]c2ccccc12)C(=O)N[C@@H](CC(C)C)C(=O)O)C(C)C)C(C)C)[C@@H](C)O)[C@@H](C)CC)[C@@H](C)CC)C(C)C` [Coronavirus OC43 36mer], the Ki at R190/N192 FPR [2] was 850 ± 80 nM; at R190/K192 FPR [4] it was 740 ± 80 nM; on W190/N192 FPR [6] it was 460 ± 50 nM.

Take `CC(C)C[C@H](NC(=O)[C@H](CO)NC(=O)[C@H](C)NC(=O)[C@H](Cc1c[nH]c2ccccc12)NC(=O)[C@H](CCCCN)NC(=O)[C@H](CC(=O)O)NC(=O)[C@H](CC(C)C)NC(=O)[C@@H](N)CCC(=O)O)C(=O)N[C@@H](Cc1c[nH]c2ccccc12)C(=O)N[C@@H](CC(N)=O)C(=O)N[C@@H](Cc1c[nH]c2ccccc12)C(=O)N[C@@H](Cc1ccccc1)C(=O)O` (H-ELDKWASLWNWF-OH): the Ki at R190/N192 FPR [2] worked out at 1200 ± 100 nM; at R190/K192 FPR [4] it was 940 ± 150 nM; at W190/N192 FPR [6], 1050 ± 100 nM.

By EC50 is commonly meant the concentration needed to bring the measured effect to its halfway point. Lower therefore signals higher potency in that assay. For `CC(C)C[C@H](NC(=O)[C@H](Cc1c[nH]c2ccccc12)NC(=O)[C@@H](NC(=O)[C@H](Cc1c[nH]c2ccccc12)NC(=O)[C@@H](N)Cc1c[nH]c2ccccc12)C(C)C)C(=O)O` [WWVWL] (H-WWVWL-OH), the Ki on R190/N192 FPR [2] was approximately 1000 nM; on R190/K192 FPR [4], approximately 1400 nM; at W190/N192 FPR [6], approximately 600 nM. The molecule also yielded an EC50 at W190/N192 FPR [5] of 1300 nM.

With `CC[C@H](C)[C@H](NC(=O)[C@H](Cc1ccc(O)cc1)NC(=O)[C@@H](NC(=O)[C@@H](N)CCC(=O)O)[C@@H](C)O)C(=O)N[C@@H](CCCCN)C(=O)N[C@@H](Cc1c[nH]c2ccccc12)C(=O)N1CCC[C@H]1C(=O)O` [ETYIKWP] (H-ETYIKWP-OH), the Ki on R190/N192 FPR [2], on R190/K192 FPR [4] and at W190/N192 FPR [6] was more than 260000 nM each time. In addition, the “EC50 for inhibition of stimulation of GTPγS binding by formyl-Nle–Leu–Phe” value at W190/N192 FPR [5] was “had no effect”.

As for `CSCC[C@H](N)C(=O)N[C@@H](Cc1ccc(O)cc1)C(=O)N[C@H](C(=O)N[C@@H](CCCCN)C(=O)N[C@@H](Cc1c[nH]c2ccccc12)C(=O)N1CCC[C@H]1C(=O)N[C@@H](Cc1c[nH]c2ccccc12)C(=O)N[C@@H](Cc1ccc(O)cc1)C(=O)N[C@H](C(=O)N[C@@H](Cc1c[nH]c2ccccc12)C(=O)N[C@@H](CC(C)C)C(=O)O)C(C)C)C(C)C` (H-MYVKWPWYVWL-OH), the “inhibition of 300 nM formyl-MYVKWPWYVWL stimulation of GTPγS binding” value is “did not have a significant effect” at R190/N192 FPR [1], “did not have a significant effect” on R190/K192 FPR [3] and 60% on W190/N192 FPR [5]. Further, the “stimulation of GTPγS binding” value on R190/N192 FPR [1], on R190/K192 FPR [3] and on W190/N192 FPR [5] was “neither ETYIKWPWWVWL nor MYVKWPWYVWL had any effect” throughout. The Ki at R190/N192 FPR [2] is 783 ± 50 nM; on R190/K192 FPR [4], 837 ± 32 nM; at W190/N192 FPR [6], 263 ± 9 nM. The “fold enhancement of affinity on formylation” value on R190/N192 FPR [2] was determined as 6 fold; at R190/K192 FPR [4] it was 6 fold; on W190/N192 FPR [6], 2 fold. Besides, the “fold higher affinity for W190/N192 than for R190/N192 or R190/K192” value on W190/N192 FPR [6] stood at 3 fold.

B1: Formyl peptide receptor (FPR R190/K192), P21462 (protein)
chain: METNSSLPTNISGGTPAVSAGYLFLDIITYLVFAVTFVLGVLGNGLVIWVAGFRMTHTVTTISYLNLAVADFCFTSTLPFFMVRKAMGGHWPFGWFLCKFVFTIVDINLFGSVFLIALIALDRCVCVLHPVWTQNHRTVSLAKKVIIGPWVMALLLTLPVIIRVTTVPGKTGTVACTFNFSPWTNDPKERIKVAVAMLTVRGIIRFIIGFSAPMSIVAVSYGLIATKIHKQGLIKSSRPLRVLSFVAAAFFLCWSPYQVVALIATVRIRELLQGMYKEIGIAVDVTSALAFFNSCLNPMLYVFMGQDFRERLIHALPASLERALTEDSTQTSDTATNSTLPSAEVELQAK
As for B1, the Ki was more than 50000 nM in the test with reverse 229E peptide and 190 nM with MMWLL.
